Assay results reported in ChEMBL document CHEMBL4507269, “Data for DCP probe BAY-386” (2021).

How the values were obtained:
[1] = target: T1, Adenosine receptor A3 (Homo sapiens) (UniProt P0DMS8); assay: A3 (h) Eurofins-Cerep Cellular and Nuclear Receptor Functional Assays; settings: Compound concentration 10.0 uM
T1 sequence (whole entry): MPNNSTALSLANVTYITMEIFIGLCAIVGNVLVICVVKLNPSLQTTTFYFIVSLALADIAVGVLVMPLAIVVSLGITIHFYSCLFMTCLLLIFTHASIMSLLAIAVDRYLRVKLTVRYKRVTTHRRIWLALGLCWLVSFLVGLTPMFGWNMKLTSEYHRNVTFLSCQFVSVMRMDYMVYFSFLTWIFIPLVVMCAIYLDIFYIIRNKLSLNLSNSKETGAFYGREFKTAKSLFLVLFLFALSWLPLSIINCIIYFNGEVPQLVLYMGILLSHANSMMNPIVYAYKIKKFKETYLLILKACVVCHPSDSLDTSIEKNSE

[2] = target: Histamine H3 receptor (Homo sapiens) (UniProt Q9Y5N1); assay: H3 (h) Eurofins-Cerep Cellular and Nuclear Receptor Functional Assays; settings: Compound concentration 10.0 uM
Chain of Histamine H3 receptor (Homo sapiens) (Q9Y5N1 whole entry): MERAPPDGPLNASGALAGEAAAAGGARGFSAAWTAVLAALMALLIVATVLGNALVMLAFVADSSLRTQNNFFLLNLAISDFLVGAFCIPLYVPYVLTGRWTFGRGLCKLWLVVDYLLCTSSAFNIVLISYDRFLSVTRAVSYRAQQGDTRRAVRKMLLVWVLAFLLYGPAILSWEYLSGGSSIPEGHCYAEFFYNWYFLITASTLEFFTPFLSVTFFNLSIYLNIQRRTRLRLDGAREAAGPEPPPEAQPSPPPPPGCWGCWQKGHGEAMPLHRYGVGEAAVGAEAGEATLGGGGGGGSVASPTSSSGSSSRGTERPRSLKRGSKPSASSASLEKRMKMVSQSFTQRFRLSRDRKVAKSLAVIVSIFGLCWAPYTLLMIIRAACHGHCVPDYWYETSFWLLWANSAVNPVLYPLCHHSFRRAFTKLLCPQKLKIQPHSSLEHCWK

[3] = system: Tyrosine-protein kinase ABL1 (Homo sapiens), P00519 [H396P]; settings: Compound concentration 1000.0 nM
[4] = target: Activin receptor type-1 (Homo sapiens) (UniProt Q04771); settings: Compound concentration 1000.0 nM
[5] = target: RAC-alpha serine/threonine-protein kinase (Homo sapiens) (UniProt P31749); settings: Compound concentration 1000.0 nM
[6] = target: NUAK family SNF1-like kinase 1 (Homo sapiens) (UniProt O60285); settings: Compound concentration 1000.0 nM
Chain of NUAK family SNF1-like kinase 1 (Homo sapiens) (O60285 whole entry): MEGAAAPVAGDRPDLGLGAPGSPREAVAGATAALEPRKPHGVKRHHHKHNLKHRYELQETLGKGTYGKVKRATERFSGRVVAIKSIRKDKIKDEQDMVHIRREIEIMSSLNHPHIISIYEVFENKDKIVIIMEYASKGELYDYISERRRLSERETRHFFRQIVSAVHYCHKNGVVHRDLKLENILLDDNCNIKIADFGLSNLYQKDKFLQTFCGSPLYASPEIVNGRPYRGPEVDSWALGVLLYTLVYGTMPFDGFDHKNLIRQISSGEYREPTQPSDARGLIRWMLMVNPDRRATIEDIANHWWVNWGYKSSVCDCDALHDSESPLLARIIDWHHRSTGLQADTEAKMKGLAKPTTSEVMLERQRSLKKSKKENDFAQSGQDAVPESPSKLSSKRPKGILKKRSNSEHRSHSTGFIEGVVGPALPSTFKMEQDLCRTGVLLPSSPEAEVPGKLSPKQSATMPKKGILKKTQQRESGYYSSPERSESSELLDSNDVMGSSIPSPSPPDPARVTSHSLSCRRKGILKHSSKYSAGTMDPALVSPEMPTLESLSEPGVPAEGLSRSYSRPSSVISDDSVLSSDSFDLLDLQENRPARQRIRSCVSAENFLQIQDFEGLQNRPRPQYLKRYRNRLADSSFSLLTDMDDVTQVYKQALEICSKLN

[7] = target: Mitogen-activated protein kinase kinase kinase 6 (Homo sapiens) (UniProt O95382); settings: Compound concentration 1000.0 nM
Chain of Mitogen-activated protein kinase kinase kinase 6 (Homo sapiens) (O95382 whole entry): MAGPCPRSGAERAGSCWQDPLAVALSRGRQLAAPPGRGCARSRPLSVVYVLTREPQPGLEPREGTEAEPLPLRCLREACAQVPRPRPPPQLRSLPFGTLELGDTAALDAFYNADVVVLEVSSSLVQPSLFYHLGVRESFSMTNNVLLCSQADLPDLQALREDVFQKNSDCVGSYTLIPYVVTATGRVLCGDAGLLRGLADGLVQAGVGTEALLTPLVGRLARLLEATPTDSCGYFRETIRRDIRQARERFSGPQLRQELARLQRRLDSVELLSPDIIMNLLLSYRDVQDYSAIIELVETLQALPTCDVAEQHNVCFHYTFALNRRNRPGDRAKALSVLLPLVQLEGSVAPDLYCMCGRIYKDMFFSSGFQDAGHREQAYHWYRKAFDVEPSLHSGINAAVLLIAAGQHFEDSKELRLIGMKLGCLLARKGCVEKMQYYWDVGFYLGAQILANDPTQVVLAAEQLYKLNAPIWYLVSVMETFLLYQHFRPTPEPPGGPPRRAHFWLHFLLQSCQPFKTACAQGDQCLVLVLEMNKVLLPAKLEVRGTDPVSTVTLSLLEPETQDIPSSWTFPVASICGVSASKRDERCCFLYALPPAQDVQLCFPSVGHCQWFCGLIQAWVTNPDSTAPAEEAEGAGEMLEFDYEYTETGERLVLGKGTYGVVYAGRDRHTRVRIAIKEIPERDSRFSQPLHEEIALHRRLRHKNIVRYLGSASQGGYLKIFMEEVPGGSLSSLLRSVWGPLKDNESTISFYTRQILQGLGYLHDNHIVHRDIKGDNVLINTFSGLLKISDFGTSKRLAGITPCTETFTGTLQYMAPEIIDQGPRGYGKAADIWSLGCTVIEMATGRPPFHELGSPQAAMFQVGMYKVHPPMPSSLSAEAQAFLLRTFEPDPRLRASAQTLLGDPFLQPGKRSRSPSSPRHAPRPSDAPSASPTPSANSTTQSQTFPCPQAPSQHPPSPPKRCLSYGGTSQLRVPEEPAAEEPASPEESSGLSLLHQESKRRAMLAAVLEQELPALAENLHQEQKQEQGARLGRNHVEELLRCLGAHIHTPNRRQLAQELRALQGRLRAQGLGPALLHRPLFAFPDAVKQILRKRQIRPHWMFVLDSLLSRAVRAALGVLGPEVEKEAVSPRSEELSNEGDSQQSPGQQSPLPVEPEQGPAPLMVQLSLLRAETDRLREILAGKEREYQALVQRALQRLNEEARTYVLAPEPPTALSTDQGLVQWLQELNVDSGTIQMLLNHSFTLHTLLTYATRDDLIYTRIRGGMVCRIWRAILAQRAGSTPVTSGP

[8] = target: Aurora kinase A (Homo sapiens) (UniProt O14965); settings: Compound concentration 1000.0 nM
Chain of Aurora kinase A (Homo sapiens) (O14965 whole entry): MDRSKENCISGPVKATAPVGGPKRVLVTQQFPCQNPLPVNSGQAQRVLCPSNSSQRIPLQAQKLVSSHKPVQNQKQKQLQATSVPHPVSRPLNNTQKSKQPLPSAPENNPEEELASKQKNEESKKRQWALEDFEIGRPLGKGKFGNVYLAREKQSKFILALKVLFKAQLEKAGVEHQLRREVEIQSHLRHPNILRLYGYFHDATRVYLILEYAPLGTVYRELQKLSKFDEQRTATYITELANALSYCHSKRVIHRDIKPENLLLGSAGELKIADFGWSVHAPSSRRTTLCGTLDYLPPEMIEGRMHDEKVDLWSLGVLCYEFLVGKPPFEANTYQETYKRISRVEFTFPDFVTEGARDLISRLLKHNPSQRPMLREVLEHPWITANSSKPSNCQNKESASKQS

[9] = target: Calcium/calmodulin-dependent protein kinase type 1G (Homo sapiens) (UniProt Q96NX5); settings: Compound concentration 1000.0 nM
[10] = target: Dual specificity protein kinase CLK4 (Homo sapiens) (UniProt Q9HAZ1); settings: Compound concentration 1000.0 nM
[11] = target: Tyrosine-protein kinase CSK (Homo sapiens) (UniProt P41240); settings: Compound concentration 1000.0 nM
Chain of Tyrosine-protein kinase CSK (Homo sapiens) (P41240 2-450 limits assumed): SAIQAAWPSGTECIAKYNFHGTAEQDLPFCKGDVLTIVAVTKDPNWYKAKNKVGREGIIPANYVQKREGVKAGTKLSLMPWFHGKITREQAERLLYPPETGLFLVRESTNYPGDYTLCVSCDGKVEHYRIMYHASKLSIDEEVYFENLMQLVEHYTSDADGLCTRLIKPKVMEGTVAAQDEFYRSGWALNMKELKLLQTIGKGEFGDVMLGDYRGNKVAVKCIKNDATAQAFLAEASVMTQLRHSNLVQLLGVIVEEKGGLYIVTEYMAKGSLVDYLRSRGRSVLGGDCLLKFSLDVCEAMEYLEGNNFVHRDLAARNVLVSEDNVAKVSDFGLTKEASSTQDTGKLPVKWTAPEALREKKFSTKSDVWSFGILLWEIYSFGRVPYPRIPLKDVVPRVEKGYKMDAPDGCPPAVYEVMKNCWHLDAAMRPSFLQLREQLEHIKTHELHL

[12] = target: Death-associated protein kinase 2 (Homo sapiens) (UniProt Q9UIK4); settings: Compound concentration 1000.0 nM
[13] = system: Epidermal growth factor receptor (Homo sapiens), P00533 [UNDEFINED MUTATION]; settings: Compound concentration 1000.0 nM
[14] = target: Ephrin type-A receptor 6 (Homo sapiens) (UniProt Q9UF33); settings: Compound concentration 1000.0 nM
[15] = target: Mitogen-activated protein kinase kinase kinase 15 (Homo sapiens) (UniProt Q6ZN16); settings: Compound concentration 1000.0 nM
[16] = target: Serine/threonine-protein kinase MARK2 (Homo sapiens) (UniProt Q7KZI7); settings: Compound concentration 1000.0 nM
[17] = target: Serine/threonine-protein kinase 3 (Homo sapiens) (UniProt Q13188); settings: Compound concentration 1000.0 nM
[18] = target: Serine/threonine-protein kinase 24 (Homo sapiens) (UniProt Q9Y6E0); settings: Compound concentration 1000.0 nM
[19] = target: Serine/threonine-protein kinase Nek2 (Homo sapiens) (UniProt P51955); settings: Compound concentration 1000.0 nM
[20] = target: Cyclin-dependent kinase 15 (Homo sapiens) (UniProt Q96Q40); settings: Compound concentration 1000.0 nM
Chain of Cyclin-dependent kinase 15 (Homo sapiens) (Q96Q40 whole entry, canonical isoform): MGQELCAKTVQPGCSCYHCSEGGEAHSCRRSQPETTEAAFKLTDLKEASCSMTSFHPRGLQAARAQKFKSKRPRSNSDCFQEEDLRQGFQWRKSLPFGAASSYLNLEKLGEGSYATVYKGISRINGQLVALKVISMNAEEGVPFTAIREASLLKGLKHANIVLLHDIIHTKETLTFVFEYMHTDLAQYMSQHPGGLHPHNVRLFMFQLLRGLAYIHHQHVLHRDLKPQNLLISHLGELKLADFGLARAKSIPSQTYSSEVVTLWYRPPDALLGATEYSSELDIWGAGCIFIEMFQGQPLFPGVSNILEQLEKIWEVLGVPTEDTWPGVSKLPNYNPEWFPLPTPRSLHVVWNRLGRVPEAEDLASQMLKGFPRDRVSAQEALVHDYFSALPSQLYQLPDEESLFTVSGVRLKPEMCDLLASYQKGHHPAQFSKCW

[21] = system: Phosphatidylinositol 4,5-bisphosphate 3-kinase catalytic subunit alpha isoform (Homo sapiens), P42336 [E545K]; settings: Compound concentration 1000.0 nM
[22] = system: Phosphatidylinositol 4,5-bisphosphate 3-kinase catalytic subunit alpha isoform (Homo sapiens), P42336 [H1047L]; settings: Compound concentration 1000.0 nM
[23] = target: Phosphatidylinositol 4,5-bisphosphate 3-kinase catalytic subunit beta isoform (Homo sapiens) (UniProt P42338); settings: Compound concentration 1000.0 nM
[24] = target: Phosphatidylinositol 4,5-bisphosphate 3-kinase catalytic subunit delta isoform (Homo sapiens) (UniProt O00329); settings: Compound concentration 1000.0 nM
[25] = target: Serine/threonine-protein kinase pim-2 (Homo sapiens) (UniProt Q9P1W9); settings: Compound concentration 1000.0 nM
[26] = target: Protein kinase C delta type (Homo sapiens) (UniProt Q05655); settings: Compound concentration 1000.0 nM
[27] = target: Ribosomal protein S6 kinase alpha-3 (Homo sapiens) (UniProt P51812); settings: Compound concentration 1000.0 nM
Chain of Ribosomal protein S6 kinase alpha-3 (Homo sapiens) (P51812 whole entry): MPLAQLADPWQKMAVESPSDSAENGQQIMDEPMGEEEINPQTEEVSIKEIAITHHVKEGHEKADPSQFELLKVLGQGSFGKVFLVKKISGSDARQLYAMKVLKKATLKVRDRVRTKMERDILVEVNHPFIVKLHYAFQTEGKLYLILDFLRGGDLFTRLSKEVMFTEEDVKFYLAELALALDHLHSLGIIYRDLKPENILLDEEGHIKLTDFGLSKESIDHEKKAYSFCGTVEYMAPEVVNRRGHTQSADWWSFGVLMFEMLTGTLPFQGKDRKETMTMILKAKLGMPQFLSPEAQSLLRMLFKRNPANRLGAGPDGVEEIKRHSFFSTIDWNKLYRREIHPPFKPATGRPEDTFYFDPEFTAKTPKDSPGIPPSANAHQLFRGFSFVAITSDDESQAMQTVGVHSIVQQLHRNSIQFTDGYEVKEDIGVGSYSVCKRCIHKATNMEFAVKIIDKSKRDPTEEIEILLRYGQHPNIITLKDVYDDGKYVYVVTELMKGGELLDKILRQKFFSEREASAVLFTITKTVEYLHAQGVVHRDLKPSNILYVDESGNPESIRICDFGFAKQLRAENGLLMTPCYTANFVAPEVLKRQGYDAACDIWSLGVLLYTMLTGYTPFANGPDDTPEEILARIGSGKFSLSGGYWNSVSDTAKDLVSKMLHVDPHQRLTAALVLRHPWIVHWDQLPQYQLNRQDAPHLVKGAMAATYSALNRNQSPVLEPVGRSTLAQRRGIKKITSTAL

[28] = target: Serine/threonine-protein kinase tousled-like 1 (Homo sapiens) (UniProt Q9UKI8); settings: Compound concentration 1000.0 nM
[29] = target: Serine/threonine-protein kinase tousled-like 2 (Homo sapiens) (UniProt Q86UE8); settings: Compound concentration 1000.0 nM
[30] = target: Transient receptor potential cation channel subfamily M member 6 (Homo sapiens) (UniProt Q9BX84); settings: Compound concentration 1000.0 nM
[31] = target: Serine/threonine-protein kinase VRK2 (Homo sapiens) (UniProt Q86Y07); settings: Compound concentration 1000.0 nM
[32] = target: Sodium-dependent serotonin transporter (Homo sapiens) (UniProt P31645); settings: Compound concentration 10.0 uM
Chain of Sodium-dependent serotonin transporter (Homo sapiens) (P31645 whole entry, looked up): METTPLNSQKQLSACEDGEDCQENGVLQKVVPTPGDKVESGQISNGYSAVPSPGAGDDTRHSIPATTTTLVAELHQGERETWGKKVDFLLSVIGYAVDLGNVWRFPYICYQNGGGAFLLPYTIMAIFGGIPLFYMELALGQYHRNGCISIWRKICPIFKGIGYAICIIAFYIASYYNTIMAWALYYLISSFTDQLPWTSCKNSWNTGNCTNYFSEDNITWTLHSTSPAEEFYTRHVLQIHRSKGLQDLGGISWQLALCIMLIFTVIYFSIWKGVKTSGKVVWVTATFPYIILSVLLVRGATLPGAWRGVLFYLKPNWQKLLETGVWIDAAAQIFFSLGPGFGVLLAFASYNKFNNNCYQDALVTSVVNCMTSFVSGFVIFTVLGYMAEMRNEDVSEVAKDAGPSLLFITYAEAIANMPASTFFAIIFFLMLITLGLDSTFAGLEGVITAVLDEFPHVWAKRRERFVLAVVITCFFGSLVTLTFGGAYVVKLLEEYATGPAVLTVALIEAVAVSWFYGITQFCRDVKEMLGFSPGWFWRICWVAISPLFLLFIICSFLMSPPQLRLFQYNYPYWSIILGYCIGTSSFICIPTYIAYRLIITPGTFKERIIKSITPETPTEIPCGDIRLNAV

[33] = target: T2, Alpha-1A adrenergic receptor (Homo sapiens) (UniProt P35348); settings: Compound concentration 10.0 uM
T2 sequence (whole entry): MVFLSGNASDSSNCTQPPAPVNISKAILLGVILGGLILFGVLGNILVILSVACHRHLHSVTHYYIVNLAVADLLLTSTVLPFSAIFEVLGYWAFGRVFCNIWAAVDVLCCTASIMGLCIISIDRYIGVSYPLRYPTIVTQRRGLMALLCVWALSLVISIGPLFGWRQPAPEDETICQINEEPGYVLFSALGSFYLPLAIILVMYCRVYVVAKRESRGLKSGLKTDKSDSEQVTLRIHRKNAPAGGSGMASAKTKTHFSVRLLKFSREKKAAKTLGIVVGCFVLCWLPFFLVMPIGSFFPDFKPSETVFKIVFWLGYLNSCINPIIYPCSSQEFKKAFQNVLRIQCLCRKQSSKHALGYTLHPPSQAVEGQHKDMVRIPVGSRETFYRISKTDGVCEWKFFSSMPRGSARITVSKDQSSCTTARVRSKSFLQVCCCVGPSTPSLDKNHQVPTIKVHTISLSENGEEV

SMILES	% Inhibition of Control Agonist Response (Mean n=2) [1] [%]	% of Control Agonist Response (Mean n=2) [1] [%]	% Inhibition of Control Agonist Response (Mean n=2) [2] [%]	% of Control Agonist Response (Mean n=2) [2] [%]	residual activity [3] [%]	residual activity [4] [%]	residual activity [5] [%]	residual activity [6] [%]	residual activity [7] [%]	residual activity [8] [%]	residual activity [9] [%]	residual activity [10] [%]	residual activity [11] [%]	residual activity [12] [%]	residual activity [13] [%]	residual activity [14] [%]	residual activity [15] [%]	residual activity [16] [%]	residual activity [17] [%]	residual activity [18] [%]	further results
O=C(N1CCS(=O)(=O)CC1)N1C[C@H](c2ccc(OC(F)(F)F)cc2)C[C@H](c2nc(C3CC3)no2)C1 [BAY-386]	-13.1	2.5	-3.7	6.2	100	100	96	97	91	100	100	100	100	100	92	100	100	100	100	97	residual activity [19]: 100%; residual activity [20]: 100%; residual activity [21]: 90%; residual activity [22]: 100%; residual activity [23]: 66%; residual activity [24]: 97%; residual activity [25]: 100%; residual activity [26]: 100%; residual activity [27]: 100%; residual activity [28]: 94%; residual activity [29]: 100%; residual activity [30]: 100%; residual activity [31]: 90%; inhibition [32]: 8.68%; inhibition [33]: -5%
Cc1noc([C@H]2C[C@@H](c3ccc(C(F)(F)F)cc3)CN(C(=O)N3CCS(=O)(=O)C3)C2)n1 [BAY-448]	12.2	19.2	-4.2	13.9	100	100	90	100	92	85	100	83	100	100	67	100	100	100	100	100	residual activity [19]: 100%; residual activity [20]: 100%; residual activity [21]: 65%; residual activity [22]: 100%; residual activity [23]: 99%; residual activity [24]: 100%; residual activity [25]: 100%; residual activity [26]: 100%; residual activity [27]: 100%; residual activity [28]: 100%; residual activity [29]: 100%; residual activity [30]: 100%; residual activity [31]: 91%; inhibition [32]: 5.57%; inhibition [33]: -4.12%
